Test results as given in patent US11259516B2, “Method and apparatus for capsular delivery to plants” (priority 2017, dated 2022).

Experiments:
[1] = system: Erythrina crista-galli (Cockspur coral tree); design: key: X indicates that the given herbicide is suitable for controlling the given weed; settings: cited from earlier work
[2] = system: Mimosa pigra (Mimosa); design: key: X indicates that the given herbicide is suitable for controlling the given weed; settings: cited from earlier work
[3] = system: Inga edulis (Icecream tree); design: key: X indicates that the given herbicide is suitable for controlling the given weed; settings: cited from earlier work
[4] = system: Lycium ferocissium (African boxthom); design: key: X indicates that the given herbicide is suitable for controlling the given weed; settings: cited from earlier work
[5] = system: Leptospermum spp. (Tea trees); design: key: X indicates that the given herbicide is suitable for controlling the given weed; settings: cited from earlier work
[6] = system: Harungana madagarcariensis (Harungana); design: key: X indicates that the given herbicide is suitable for controlling the given weed; settings: cited from earlier work
[7] = system: Ligustrum sinense (Chinese privet); design: key: X indicates that the given herbicide is suitable for controlling the given weed; settings: cited from earlier work
[8] = system: Senna pendula (Winter senna); design: key: X indicates that the given herbicide is suitable for controlling the given weed; settings: cited from earlier work
[9] = system: Celtis sinensis (Chinese celtis); design: key: X indicates that the given herbicide is suitable for controlling the given weed; settings: cited from earlier work
[10] = system: Schinus terebinthifolius (Broad-leafed pepper tree); design: key: X indicates that the given herbicide is suitable for controlling the given weed; settings: cited from earlier work
[11] = system: Tabebuia aurea (Tabebuia); design: key: X indicates that the given herbicide is suitable for controlling the given weed; settings: cited from earlier work
[12] = system: western white gum (Eucalyptus argophloia); assay: Example 3: glyphosate and glyphosate+imazapyr capsules, thinning trial in western white gum plantation
Description: The trial was established at the HQP plantation near Jandowae on 6 Feb. 2018. The trees were planted in rows 4 m apart at 1.5 m spacing. Trees were 6-10 m tall. Trees to be maintained were marked and the other trees were treated.
(§1) Four treatments were used, with capsules as follows:
Capsules and applicator used were as described in Example 2.
(§2) Herbicide capsules were applied to approx. 10 trees for each of the treatments. The number of capsules applied to each tree was independent of tree circumference which was measured at chest height. The tree circumferences range was from 12 to 25 centimetres. At 4 weeks, a small sample of trees were cut down with a chainsaw and cross-sections of stems containing the sites of insertion of the herbicide capsules removed. These stem pieces were returned to the laboratory and split open longitudinally through the insertion point. Tree health was assessed at 11 weeks (24 Apr. 2018) on a 0-4 scale with 0 being dead and 4 being healthy. Observations were made for evidence of flashback in untreated trees.

[13] = system: Senegalia catechu (Cutch tree); design: key: X indicates that the given herbicide is suitable for controlling the given weed; settings: cited from earlier work
[14] = system: Salix species (Willows); design: key: X indicates that the given herbicide is suitable for controlling the given weed; settings: cited from earlier work
[15] = system: Miconia calvescens (Velvet tree); design: key: X indicates that the given herbicide is suitable for controlling the given weed; settings: cited from earlier work
[16] = system: Pittosporum undulatum (Sweet pittosporum); design: key: X indicates that the given herbicide is suitable for controlling the given weed; settings: cited from earlier work
[17] = system: Rubus anglocandicans (Blackberry); design: key: X indicates that the given herbicide is suitable for controlling the given weed; settings: cited from earlier work
[18] = system: Ricinus communis (Castor oil plant); design: key: X indicates that the given herbicide is suitable for controlling the given weed; settings: in vivo; cited from earlier work
[19] = system: western white gum (Eucalyptus argophloia); assay: Example 2: glyphosate and hexazinone capsules, thinning trial in western white gum plantation; settings: Eucalyptus argophloia
Description: The trial for this example was established at the HQP plantation near Jandowae on 6 Feb. 2018. The trees were planted in rows 4 m apart at 1.5 m spacing. Trees were 6-10 m tall. Trees to be maintained were marked and the other trees were treated.
as §1
The capsules used were HPMC Size 0 Natural TR.V700 colour cap and body Vcaps (Suzhou Capsugel® Ltd, China). Capsules were hand packed using a Capsugel Profiller apparatus (https://www.capsugel.com/biopharmaceutical-products/profiller). An embodiment of apparatus 10 adapted to include handle 2201 (FIG. 17) was used to drill a hole into the stem, insert the herbicide capsule and seal with a wooden plug.
as §2, with “approximately” for “approx.”, “20” for “12”, “34” for “25”

[20] = system: Erythrina sykesii (Coral tree); design: key: X indicates that the given herbicide is suitable for controlling the given weed; settings: cited from earlier work
[21] = system: Acacia spp (Wattles); design: key: X indicates that the given herbicide is suitable for controlling the given weed; settings: cited from earlier work
[22] = system: Phoenix spp (Palms); design: key: X indicates that the given herbicide is suitable for controlling the given weed; settings: cited from earlier work
[23] = system: Koelreuteria elegans (Golden rain tree); design: key: X indicates that the given herbicide is suitable for controlling the given weed; settings: cited from earlier work
[24] = system: Olea europea sbsp africana (African olive); design: key: X indicates that the given herbicide is suitable for controlling the given weed; settings: cited from earlier work
[25] = system: Ligustrum lucidum (Broad leaf privet); design: key: X indicates that the given herbicide is suitable for controlling the given weed; settings: cited from earlier work
[26] = system: Psidium cattleianum (Cherry guava); design: key: X indicates that the given herbicide is suitable for controlling the given weed; settings: cited from earlier work
[27] = system: Gleditsia triacanthos (Honey locust); design: key: X indicates that the given herbicide is suitable for controlling the given weed; settings: cited from earlier work
[28] = 11 weeks post treatment, 1 or 2 capsules per tree

For `O=C(O)CNCP(=O)(O)O` [Glyphosate], the “suitability of herbicide for control of weed” value (shortened to “suitability of herbicide”) [1] is given as “X”, the “suitability of herbicide” value [2] is given as “X” and the “suitability of herbicide” value [3] is given as “X”. For the same compound, the “suitability of herbicide” value [4] was “X”, the “suitability of herbicide” value [5] was “X” and the “suitability of herbicide” value [6] was “X”. The “suitability of herbicide” value [7] was “X”, the “suitability of herbicide” value [8] was “X” and the “suitability of herbicide” value [9] was “X”. The “suitability of herbicide” value [10] was “X”, the “suitability of herbicide” value [11] was “X” and the “flashback in the trees marked for retention” value ([12]; 11 week assessment) was “no flashback was observed”. For the same compound, the “trees died (health rating 0-4 scale, 0 dead)” value [12, 28] was “majority of trees”, the “suitability of herbicide” value [13] was “X” and the “suitability of herbicide” value [14] was “X”. The “suitability of herbicide” value [15] was “X”, the “suitability of herbicide” value [16] was “X” and the “suitability of herbicide” value [17] was “X”. For the same compound, the “suitability of herbicide” value [18] was “X”, the “flashback in the trees marked for retention” value ([19]; 11 week assessment) was “no flashback was observed” and the “trees died / killed (health rating 0-4 scale, 0 dead)” value [19, 28] was “majority of trees”. For the same compound, the “suitability of herbicide” value [20] was “X”, the “suitability of herbicide” value [21] was “X” and the “suitability of herbicide” value [22] was “X”. For the same compound, the “suitability of herbicide” value [23] was “X”, the “suitability of herbicide” value [24] was “X” and the “suitability of herbicide” value [25] was “X”. The “suitability of herbicide” value [26] was “X” and the “suitability of herbicide” value [27] was “X”.
